From the supplement of paper PMC10307832

Legend:
Assay in all cases: relative viability (nuclei count vs DMSO), 5 days (fraction); higher = more cells survive
NCI-H661 = system: NCI-H661
Procedure, shortened: (§1)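 Relative viability is defined as nuclei in treated wells over nuclei in vehicle wells. Duplicate plates were run and medians reported. Lung cancer cell lines in 1536-well plates were dosed by pin tool one day after seeding, with one drug or with a fixed anchor-drug dose plus five library-drug doses (not always all listed) in √10 steps, and nuclei were counted after 5 days.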

NCI-H650 = system: NCI-H650
Procedure, shortened: as §1

BEN = system: BEN
Procedure, shortened: as §1

NCI-H1650 = system: NCI-H1650
Procedure, shortened: as §1

A-427 = system: A-427
Procedure, shortened: as §1

LC-2-ad = system: LC-2-ad
Procedure, shortened: as §1

201T = system: 201T
Procedure, shortened: as §1

NCI-H1915 = system: NCI-H1915
Procedure, shortened: as §1

ABC-1 = system: ABC-1
Procedure, shortened: as §1

H3255 = system: H3255
Procedure, shortened: as §1

NCI-H460 = system: NCI-H460
Procedure, shortened: as §1

CAL-12T = system: CAL-12T
Procedure, shortened: as §1

NCI-H520 = system: NCI-H520
Procedure, shortened: as §1

PC-3 [JPC-3] = system: PC-3 [JPC-3]
Procedure, shortened: as §1

NCI-H1651 = system: NCI-H1651
Procedure, shortened: as §1

LCLC-97TM1 = system: LCLC-97TM1
Procedure, shortened: as §1

NCI-H441 = system: NCI-H441
Procedure, shortened: as §1

NCI-H727 = system: NCI-H727
Procedure, shortened: as §1

NCI-H1944 = system: NCI-H1944
Procedure, shortened: as §1

NCI-H2023 = system: NCI-H2023
Procedure, shortened: as §1

NCI-H2087 = system: NCI-H2087
Procedure, shortened: as §1

## COc1cc2nccc(Oc3ccc(NC(=O)Nc4cc(C)on4)c(Cl)c3)c2cc1OC [Tivozanib] + CC(=O)c1c(C)c2cnc(Nc3ccc(N4CCNCC4)cn3)nc2n(C2CCCC2)c1=O [Palbociclib] (partner 0.5 µM)
NCI-H661; first compound 0.005 µM
  relative viability: 0.401
NCI-H661; first compound 0.01581 µM
  relative viability: 0.387
NCI-H661; first compound 0.05 µM
  relative viability: 0.422
NCI-H661; first compound 0.1581 µM
  relative viability: 0.409
NCI-H661; first compound 0.5 µM
  relative viability: 0.387
NCI-H650; first compound 0.005 µM
  relative viability: 0.297
NCI-H650; first compound 0.01581 µM
  relative viability: 0.391
NCI-H650; first compound 0.05 µM
  relative viability: 0.338
NCI-H650; first compound 0.1581 µM
  relative viability: 0.377
NCI-H650; first compound 0.5 µM
  relative viability: 0.27
BEN; first compound 0.005 µM
  relative viability: 0.508
BEN; first compound 0.01581 µM
  relative viability: 0.497
BEN; first compound 0.05 µM
  relative viability: 0.453
BEN; first compound 0.1581 µM
  relative viability: 0.44
BEN; first compound 0.5 µM
  relative viability: 0.459
NCI-H1650; first compound 0.005 µM
  relative viability: 0.328
NCI-H1650; first compound 0.01581 µM
  relative viability: 0.304
NCI-H1650; first compound 0.05 µM
  relative viability: 0.336
NCI-H1650; first compound 0.1581 µM
  relative viability: 0.389
NCI-H1650; first compound 0.5 µM
  relative viability: 0.319
A-427; first compound 0.005 µM
  relative viability: 0.51
A-427; first compound 0.01581 µM
  relative viability: 0.55
A-427; first compound 0.05 µM
  relative viability: 0.511
A-427; first compound 0.1581 µM
  relative viability: 0.531
A-427; first compound 0.5 µM
  relative viability: 0.476
LC-2-ad; first compound 0.005 µM
  relative viability: 0.471
LC-2-ad; first compound 0.01581 µM
  relative viability: 0.47
LC-2-ad; first compound 0.05 µM
  relative viability: 0.478
LC-2-ad; first compound 0.1581 µM
  relative viability: 0.369
LC-2-ad; first compound 0.5 µM
  relative viability: 0.297
201T; first compound 0.005 µM
  relative viability: 0.395
201T; first compound 0.01581 µM
  relative viability: 0.39
201T; first compound 0.05 µM
  relative viability: 0.366
201T; first compound 0.1581 µM
  relative viability: 0.373
201T; first compound 0.5 µM
  relative viability: 0.357
NCI-H1915; first compound 0.005 µM
  relative viability: 0.537
NCI-H1915; first compound 0.01581 µM
  relative viability: 0.553
NCI-H1915; first compound 0.05 µM
  relative viability: 0.538
NCI-H1915; first compound 0.1581 µM
  relative viability: 0.484
NCI-H1915; first compound 0.5 µM
  relative viability: 0.503
ABC-1; first compound 0.005 µM
  relative viability: 0.638
ABC-1; first compound 0.01581 µM
  relative viability: 0.732
ABC-1; first compound 0.05 µM
  relative viability: 0.562
ABC-1; first compound 0.1581 µM
  relative viability: 0.511
ABC-1; first compound 0.5 µM
  relative viability: 0.437
H3255; first compound 0.005 µM
  relative viability: 0.313
H3255; first compound 0.01581 µM
  relative viability: 0.356
H3255; first compound 0.05 µM
  relative viability: 0.294
H3255; first compound 0.1581 µM
  relative viability: 0.334
H3255; first compound 0.5 µM
  relative viability: 0.328
NCI-H460; first compound 0.005 µM
  relative viability: 0.147
NCI-H460; first compound 0.01581 µM
  relative viability: 0.196
NCI-H460; first compound 0.05 µM
  relative viability: 0.141
NCI-H460; first compound 0.1581 µM
  relative viability: 0.22
NCI-H460; first compound 0.5 µM
  relative viability: 0.209
CAL-12T; first compound 0.005 µM
  relative viability: 0.407
CAL-12T; first compound 0.01581 µM
  relative viability: 0.433
CAL-12T; first compound 0.05 µM
  relative viability: 0.465
CAL-12T; first compound 0.1581 µM
  relative viability: 0.224
CAL-12T; first compound 0.5 µM
  relative viability: 0.402
NCI-H520; first compound 0.005 µM
  relative viability: 0.231
NCI-H520; first compound 0.01581 µM
  relative viability: 0.296
NCI-H520; first compound 0.05 µM
  relative viability: 0.238
NCI-H520; first compound 0.1581 µM
  relative viability: 0.19
NCI-H520; first compound 0.5 µM
  relative viability: 0.231
PC-3 [JPC-3]; first compound 0.01581 µM
  relative viability: 0.55
PC-3 [JPC-3]; first compound 0.05 µM
  relative viability: 0.554
PC-3 [JPC-3]; first compound 0.1581 µM
  relative viability: 0.609
PC-3 [JPC-3]; first compound 0.5 µM
  relative viability: 0.55
NCI-H1651; first compound 0.005 µM
  relative viability: 0.524
NCI-H1651; first compound 0.01581 µM
  relative viability: 0.516
NCI-H1651; first compound 0.05 µM
  relative viability: 0.522
NCI-H1651; first compound 0.1581 µM
  relative viability: 0.547
NCI-H1651; first compound 0.5 µM
  relative viability: 0.543
LCLC-97TM1; first compound 0.005 µM
  relative viability: 0.233
LCLC-97TM1; first compound 0.01581 µM
  relative viability: 0.245
LCLC-97TM1; first compound 0.05 µM
  relative viability: 0.193
LCLC-97TM1; first compound 0.1581 µM
  relative viability: 0.268
LCLC-97TM1; first compound 0.5 µM
  relative viability: 0.214
NCI-H441; first compound 0.005 µM
  relative viability: 0.214
NCI-H441; first compound 0.01581 µM
  relative viability: 0.262
NCI-H441; first compound 0.05 µM
  relative viability: 0.248
NCI-H441; first compound 0.1581 µM
  relative viability: 0.216
NCI-H441; first compound 0.5 µM
  relative viability: 0.207
NCI-H727; first compound 0.005 µM
  relative viability: 0.659
NCI-H727; first compound 0.01581 µM
  relative viability: 0.659
NCI-H727; first compound 0.05 µM
  relative viability: 0.574
NCI-H727; first compound 0.1581 µM
  relative viability: 0.637
NCI-H727; first compound 0.5 µM
  relative viability: 0.7
NCI-H1944; first compound 0.005 µM
  relative viability: 0.303
NCI-H1944; first compound 0.01581 µM
  relative viability: 0.365
NCI-H1944; first compound 0.05 µM
  relative viability: 0.344
NCI-H1944; first compound 0.1581 µM
  relative viability: 0.296
NCI-H1944; first compound 0.5 µM
  relative viability: 0.324
NCI-H2023; first compound 0.005 µM
  relative viability: 0.371
NCI-H2023; first compound 0.01581 µM
  relative viability: 0.447
NCI-H2023; first compound 0.05 µM
  relative viability: 0.384
NCI-H2023; first compound 0.1581 µM
  relative viability: 0.395
NCI-H2023; first compound 0.5 µM
  relative viability: 0.451
NCI-H2087; first compound 0.005 µM
  relative viability: 0.271
NCI-H2087; first compound 0.01581 µM
  relative viability: 0.288
NCI-H2087; first compound 0.05 µM
  relative viability: 0.259
NCI-H2087; first compound 0.1581 µM
  relative viability: 0.231
NCI-H2087; first compound 0.5 µM
  relative viability: 0.231
